Laboratory results: patent US10555532B2, “Plant growth-promoting bacteria and methods of use” (priority 2013, dated 2020)

Tests used:
Corn = Corn growth, bacteria with plant-growth-promoting chemicals; type: in vivo; settings: 2 weeks
Description: (§1) The selected strains were grown in minimal media (KH2PO4 3 g, Na2HPO4 6 g, NH4Cl 1 g, NaCl 0.50 g, MgSO4 7H2O 0.15 g, CaCl2 2H2O 0.013 g, and glucose 1 g, per L dry weight).

Soybeans = assay: Soybean growth, bacteria with plant-growth-promoting chemicals; type: in vivo; settings: 2 weeks
Description: as §1

| Compound | Comparison to Uninoculated (Corn; corn height) [%] | Avg. Height (cm) (Corn; corn, with or without 2,3-butanediol or yeast extract) | Comparison to Uninoculated (Soybeans; soybean height) [%] | Avg. Height (cm) (Soybeans; soybeans, with or without glycerol, 2,3-butanediol or yeast extract) |
| --- | --- | --- | --- | --- |
| CC(O)C(C)O (stereo not shown) [Uninoculated and 2,3-butanediol, 2,3-butanediol] | 105.8 | 16.03 |  |  |
| OCC(O)CO [Uninoculated and Glycerol, glycerol] |  |  | 109.8 | 12.34 |
